Measured values reported in patent publication US20260232767A1, “INTERLEUKIN-23 RECEPTOR ANTAGONIST PEPTIDES FOR USE IN THE TREATMENT OF PSORIASIS” (Janssen Pharmaceutica NV, priority 2023, published 2026).

Test system: subjects with moderate-to-severe plaque psoriasis
Test: PASI response, Example 2 long-term extension to Week 52
Format: in vivo, human
Source text: Described below is a multicenter, long-term extension (LTE), double-blind, dose-ranging, parallel group interventional study in participants from Example 1 to evaluate the long-term efficacy and safety of the hydrochloride salt of the compound of Formula (I) for the treatment of moderate-to-severe plaque psoriasis. Patients from Example 1 continued to receive the same dose of the compound of Formula (I) for an additional 36-week treatment period with a 4-week safety follow up period after the last administration of the compound of Formula (I). Patients randomized to placebo in Example 1 received the compound of Formula (I) at a dose of 100 mg QD starting at Week 16 of Example 1 (FIG. 21).
The primary efficacy endpoint is the proportion of participants achieving a PASI 75 response at Week 52, defined as at least a […] reduction from baseline PASI of Example 1. For primary analysis, composite strategy (non-responder imputation) was applied to address intercurrent event #1 (Discontinuation of study intervention due to lack of efficacy or due to an AE of worsening of psoriasis) and […] (initiation of a protocol-prohibited medication or therapy that could improve psoriasis); treatment policy strategy (observed data) was applied to intercurrent event #3 (Discontinuation of study intervention due to other reasons). Participants with missing data after application of ICEs are considered as non-responders.
Since there was no control arm (after week 16), in this primary analysis, only the proportion of participants who achieved a PASI75 response and its […] confidence interval at Week 52 were summarized for each intervention group.

[1] = Week 20, Placebo → 100 mg QD, N=35
[2] = Week 24, Placebo → 100 mg QD, N=35
[3] = Week 28, Placebo → 100 mg QD, N=35
[4] = Week 32, Placebo → 100 mg QD, N=35
[5] = Week 40, Placebo → 100 mg QD, N=35
[6] = Week 52, Placebo → 100 mg QD, N=35

CC(=O)NCCCC[C@@H]1NC(=O)[C@H](Cc2c[nH]c3c(C)cccc23)NC(=O)[C@H]([C@@H](C)O)NC(=O)[C@H](CC(N)=O)NC(=O)[C@@H](NC(C)=O)C(C)(C)SSC(C)(C)[C@@H](C(=O)N[C@@H](Cc2ccc(OCCN)cc2)C(=O)N[C@@H](Cc2ccc3ccccc3c2)C(=O)NC2(C(=O)N[C@@H](CCC(=O)O)C(=O)N[C@@H](CC(N)=O)C(=O)N[C@@H](Cc3cccnc3)C(=O)N(C)CC(N)=O)CCOCC2)NC1=O [IL-23 receptor antagonist peptide, Ac-[Pen]*-N-T-[W(7-Me)]-[Lys(Ac)]-[Pen]*-Phe[4-(2-aminoethoxy)]-[2-Nal]-[THP]-E-N-[3-Pal]-Sarc-NH2 (*[Pen]-[Pen]* formdisulfidebond)]
PASI ≥90% Improvement, subjects (%) (Week 20, 100 mg BID, N=42): (61.9%)
PASI 100% Improvement, subjects (%) (Week 20, 100 mg QD, N=43): (14.0%)
PASI ≥75% Improvement, subjects (%) (Week 20, 100 mg QD, N=43): (60.5%)
PASI ≥90% Improvement, subjects (%) (Week 20, 100 mg QD, N=43): (44.2%)
PASI 100% Improvement, subjects (%) [1]: (2.9%)
PASI ≥75% Improvement, subjects (%) [1]: (40.0%)
PASI ≥90% Improvement, subjects (%) [1]: (14.3%)
PASI 100% Improvement, subjects (%) (Week 24, 25 mg BID, N=41): (19.5%)
PASI ≥75% Improvement, subjects (%) (Week 24, 25 mg BID, N=41): (61.0%)
PASI ≥90% Improvement, subjects (%) (Week 24, 25 mg BID, N=41): (29.3%)
PASI 100% Improvement, subjects (%) (Week 24, 25 mg QD, N=43): (16.3%)
PASI ≥75% Improvement, subjects (%) (Week 24, 25 mg QD, N=43): (46.5%)
PASI ≥90% Improvement, subjects (%) (Week 24, 25 mg QD, N=43): (32.6%)
PASI 100% Improvement, subjects (%) (Week 24, 50 mg QD, N=43): (27.9%)
PASI ≥75% Improvement, subjects (%) (Week 24, 50 mg QD, N=43): (60.5%)
PASI ≥90% Improvement, subjects (%) (Week 24, 50 mg QD, N=43): (53.5%)
PASI 100% Improvement, subjects (%) (Week 24, 100 mg BID, N=42): (35.7%)
PASI ≥75% Improvement, subjects (%) (Week 24, 100 mg BID, N=42): (81.0%)
PASI ≥90% Improvement, subjects (%) (Week 24, 100 mg BID, N=42): (69.0%)
PASI 100% Improvement, subjects (%) (Week 24, 100 mg QD, N=43): (20.9%)
PASI ≥75% Improvement, subjects (%) (Week 24, 100 mg QD, N=43): (69.8%)
PASI ≥90% Improvement, subjects (%) (Week 24, 100 mg QD, N=43): (55.8%)
PASI 100% Improvement, subjects (%) [2]: (8.6%)
PASI ≥75% Improvement, subjects (%) [2]: (60.0%)
PASI ≥90% Improvement, subjects (%) [2]: (22.9%)
PASI 100% Improvement, subjects (%) (Week 28, 25 mg BID, N=41): (17.1%)
PASI ≥75% Improvement, subjects (%) (Week 28, 25 mg BID, N=41): (61.0%)
PASI ≥90% Improvement, subjects (%) (Week 28, 25 mg BID, N=41): (36.6%)
PASI 100% Improvement, subjects (%) (Week 28, 25 mg QD, N=43): (18.6%)
PASI ≥75% Improvement, subjects (%) (Week 28, 25 mg QD, N=43): (39.5%)
PASI ≥90% Improvement, subjects (%) (Week 28, 25 mg QD, N=43): (27.9%)
PASI 100% Improvement, subjects (%) (Week 28, 50 mg QD, N=43): (14.0%)
PASI ≥75% Improvement, subjects (%) (Week 28, 50 mg QD, N=43): (69.8%)
PASI ≥90% Improvement, subjects (%) (Week 28, 50 mg QD, N=43): (48.8%)
PASI 100% Improvement, subjects (%) (Week 28, 100 mg BID, N=42): (38.1%)
PASI ≥75% Improvement, subjects (%) (Week 28, 100 mg BID, N=42): (78.6%)
PASI ≥90% Improvement, subjects (%) (Week 28, 100 mg BID, N=42): (61.9%)
PASI 100% Improvement, subjects (%) (Week 28, 100 mg QD, N=43): (25.6%)
PASI ≥75% Improvement, subjects (%) (Week 28, 100 mg QD, N=43): (65.1%)
PASI ≥90% Improvement, subjects (%) (Week 28, 100 mg QD, N=43): (51.2%)
PASI 100% Improvement, subjects (%) [3]: (14.3%)
PASI ≥75% Improvement, subjects (%) [3]: (62.9%)
PASI ≥90% Improvement, subjects (%) [3]: (22.9%)
PASI 100% Improvement, subjects (%) (Week 32, 25 mg BID, N=41): (17.1%)
PASI ≥75% Improvement, subjects (%) (Week 32, 25 mg BID, N=41): (53.7%)
PASI ≥90% Improvement, subjects (%) (Week 32, 25 mg BID, N=41): (39.0%)
PASI 100% Improvement, subjects (%) (Week 32, 25 mg QD, N=43): (18.6%)
PASI ≥75% Improvement, subjects (%) (Week 32, 25 mg QD, N=43): (48.8%)
PASI ≥90% Improvement, subjects (%) (Week 32, 25 mg QD, N=43): (30.2%)
PASI 100% Improvement, subjects (%) (Week 32, 50 mg QD, N=43): (25.6%)
PASI ≥75% Improvement, subjects (%) (Week 32, 50 mg QD, N=43): (65.1%)
PASI ≥90% Improvement, subjects (%) (Week 32, 50 mg QD, N=43): (51.2%)
PASI 100% Improvement, subjects (%) (Week 32, 100 mg BID, N=42): (33.3%)
PASI ≥75% Improvement, subjects (%) (Week 32, 100 mg BID, N=42): (78.6%)
PASI ≥90% Improvement, subjects (%) (Week 32, 100 mg BID, N=42): (66.7%)
PASI 100% Improvement, subjects (%) (Week 32, 100 mg QD, N=43): (25.6%)
PASI ≥75% Improvement, subjects (%) (Week 32, 100 mg QD, N=43): (69.8%)
PASI ≥90% Improvement, subjects (%) (Week 32, 100 mg QD, N=43): (62.8%)
PASI 100% Improvement, subjects (%) [4]: (20.0%)
PASI ≥75% Improvement, subjects (%) [4]: (65.7%)
PASI ≥90% Improvement, subjects (%) [4]: (40.0%)
PASI 100% Improvement, subjects (%) (Week 40, 25 mg BID, N=41): (14.6%)
PASI ≥75% Improvement, subjects (%) (Week 40, 25 mg BID, N=41): (53.7%)
PASI ≥90% Improvement, subjects (%) (Week 40, 25 mg BID, N=41): (31.7%)
PASI 100% Improvement, subjects (%) (Week 40, 25 mg QD, N=43): (11.6%)
PASI ≥75% Improvement, subjects (%) (Week 40, 25 mg QD, N=43): (48.8%)
PASI ≥90% Improvement, subjects (%) (Week 40, 25 mg QD, N=43): (32.6%)
PASI 100% Improvement, subjects (%) (Week 40, 50 mg QD, N=43): (20.9%)
PASI ≥75% Improvement, subjects (%) (Week 40, 50 mg QD, N=43): (67.4%)
PASI ≥90% Improvement, subjects (%) (Week 40, 50 mg QD, N=43): (46.5%)
PASI 100% Improvement, subjects (%) (Week 40, 100 mg BID, N=42): (35.7%)
PASI ≥75% Improvement, subjects (%) (Week 40, 100 mg BID, N=42): (78.6%)
PASI ≥90% Improvement, subjects (%) (Week 40, 100 mg BID, N=42): (64.3%)
PASI 100% Improvement, subjects (%) (Week 40, 100 mg QD, N=43): (25.6%)
PASI ≥75% Improvement, subjects (%) (Week 40, 100 mg QD, N=43): (69.8%)
PASI ≥90% Improvement, subjects (%) (Week 40, 100 mg QD, N=43): (55.8%)
PASI 100% Improvement, subjects (%) [5]: (28.6%)
PASI ≥75% Improvement, subjects (%) [5]: (60.0%)
PASI ≥90% Improvement, subjects (%) [5]: (45.7%)
PASI 100% Improvement, subjects (%) (Week 52, 25 mg BID, N=41): (17.1%)
PASI ≥75% Improvement, subjects (%) (Week 52, 25 mg BID, N=41): (58.5%)
PASI ≥90% Improvement, subjects (%) (Week 52, 25 mg BID, N=41): (36.6%)
PASI 100% Improvement, subjects (%) (Week 52, 25 mg QD, N=43): (14.0%)
PASI ≥75% Improvement, subjects (%) (Week 52, 25 mg QD, N=43): (48.8%)
PASI ≥90% Improvement, subjects (%) (Week 52, 25 mg QD, N=43): (27.9%)
PASI 100% Improvement, subjects (%) (Week 52, 50 mg QD, N=43): (20.9%)
PASI ≥75% Improvement, subjects (%) (Week 52, 50 mg QD, N=43): (69.8%)
PASI ≥90% Improvement, subjects (%) (Week 52, 50 mg QD, N=43): (41.9%)
PASI 100% Improvement, subjects (%) (Week 52, 100 mg BID, N=42): (40.5%)
PASI ≥75% Improvement, subjects (%) (Week 52, 100 mg BID, N=42): (76.2%)
PASI 100% Improvement, subjects (%) (Week 52, 100 mg QD, N=43): (25.6%)
PASI ≥75% Improvement, subjects (%) (Week 52, 100 mg QD, N=43): (65.1%)
PASI ≥90% Improvement, subjects (%) (Week 52, 100 mg QD, N=43): (51.2%)
PASI 100% Improvement, subjects (%) [6]: (34.3%)
PASI ≥75% Improvement, subjects (%) [6]: (65.7%)
PASI ≥90% Improvement, subjects (%) [6]: (57.1%)
PASI and IGA response rates (from Week 16 to Week 52): generally maintained
